These results are taken from PubChem BioAssay (NCI).

Molecules are shown by their SMILES.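 Five compound concentrations were applied to cells in 96-well plates for 48 hours; endpoints were derived by simple linear interpolation of the resulting dose-response curve. GI50: concentration for 50% inhibition of growth. TGI: total growth inhibition.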

What all share (assay): NCI-60 cell line screen, 48 h
For assay [1], the system named is HCT-116 colon.
Assay [2] concerns EKVX NSCLC.
In assay [3] the test system is SW-620 colon.
For assay [4], the system named is OVCAR-5 ovarian.
Assay [5] concerns HOP-62 NSCLC.
Assay [6] concerns A549 NSCLC.
Assay [7] deals with SK-OV-3 ovarian.
Assay [8] deals with RPMI-8226 leukemia.
Assay [9] concerns COLO 205 colon.

In the case of `C=C1C(=O)O[C@H]2C/C(C)=C/CC/C(C)=C/CC[C@@](C)(O)[C@@H](I)C[C@@H]12`, the TGI turned out to be 12.3 µM in assay [1]; 20.8 µM in assay [2]; 19.8 µM in [3]; 30.2 µM in [4]; 30.9 µM in assay [5]; 24.8 µM in assay [6]. Further, the TGI in assay [7] was found to be 29.8 µM; in assay [8], 12.9 µM; in assay [9], 24.9 µM.
Regarding `Cc1cc(N=Cc2c(CO)cnc(C)c2O)c(N=Cc2c(CO)cnc(C)c2O)cc1C.[Zn]`, the TGI in assay [1], in assay [2], in [3], in [4], in assay [5] and in assay [6] was over 100 µM in each case. For the same compound, the TGI in [7], in assay [8] and in assay [9] was over 100 µM each time. In addition, the GI50 in [8] is over 100 µM.
As for `CCOC(=O)c1c2c(n(-c3ccc(OC)cc3)c1C)C(=O)C(=O)c1ccccc1-2`, the TGI was found to be 3 µM in [1]; 4.09 µM in assay [2]; 8.09 µM in assay [3]; 3.46 µM in [4]; 3.46 µM in assay [5]; 4.46 µM in assay [6]. The TGI is 6.03 µM in assay [7], 2.86 µM in [8] and 5.31 µM in [9].
`Cc1cc(=O)n2nc(CSc3nnc(N)s3)sc2n1`: the TGI in assay [1], in [2], in assay [3], in assay [4], in [5] and in [6] was over 100 µM in each case. Besides, the TGI in [7], in [8] and in assay [9] was over 100 µM throughout.
With `COC(=O)c1ccc(CCc2cc(O)ccc2O)cc1`, the TGI was 24 µM in assay [1]; 32.4 µM in [2]; 29.7 µM in [3]; 50.7 µM in [4]; 48.6 µM in assay [5]; over 61.3 µM in assay [6]. Also, the TGI in assay [7] is over 78 µM; in [8], 4.16 µM; in assay [9], 54.5 µM.
For `CC(=Nc1c2ccccc2nc2ccccc12)N(C)C`, the TGI is 27.6 µM in assay [1]; over 100 µM in assay [2]; over 100 µM in [4]; 66.2 µM in [5]; over 100 µM in [6]; over 100 µM in [7]. Further, the TGI came to 38.2 µM in assay [8] and 25.2 µM in [9].
Turning to `S=C1C(=Nc2ccccc2)N(c2ccccc2)/C(=N\c2ccccn2)N1c1ccccc1`, the TGI came to 30.4 µM in [1]; 29.1 µM in assay [2]; 27.9 µM in assay [3]; 29.9 µM in [4]; 30.1 µM in assay [5]; 38.6 µM in [6]. Besides, the TGI in assay [7] is 36 µM; in assay [8] it was over 100 µM; in [9], 22.7 µM.
As for `NC(c1ccccc1)(C(F)(F)F)P1(=O)OC(=O)c2ccccc2O1` (stereo not drawn), the TGI in assay [1], in assay [2], in assay [3], in assay [4], in assay [5] and in assay [6] was over 100 µM in each case. Further, the TGI in assay [7] is 74.4 µM; in [8], over 100 µM; in assay [9], over 100 µM.
Take `C[C@H](CC[C@@H](O)C(C)(C)O)[C@H]1CC[C@@]2(C)[C@@H]3CC=C4[C@@H](CC[C@H](O)C4(C)C)[C@]3(C)C(=O)C[C@]12C`: the TGI in [1], in assay [2], in assay [3], in assay [4], in assay [5] and in assay [6] was over 50 µM in each case. For the same compound, the results for the TGI in assay [7], in assay [8] and in assay [9] were over 50 µM, 29.8 µM and 31.8 µM, respectively.
With `C=CCN(c1cc(OCc2ccccc2)c(NC(C)=O)cc1[N+](=O)[O-])S(C)(=O)=O`, the TGI was over 100 µM in [1]; 33.8 µM in assay [2]; over 100 µM in assay [3]; over 100 µM in [4]; 53 µM in assay [5]; over 100 µM in assay [6]. For the same compound, the results for the TGI in assay [7], in assay [8] and in [9] were 38.7 µM, over 100 µM and over 100 µM, respectively.
With `COC(=O)c1ccccc1C#CCCCOS(C)(=O)=O`, the TGI in [1], in assay [2], in assay [3], in [4], in assay [5] and in assay [6] was over 10 µM throughout. The TGI in assay [7], in assay [8] and in [9] was over 10 µM in each case.
`O=C1CCCC2=C1C(c1ccc3c(c1)OCO3)Nc1ccc3ccccc3c12` (stereo not drawn): the TGI in assay [1], in assay [2], in assay [3], in assay [4], in [5] and in [6] was over 100 µM throughout. Besides, the TGI in [7], in [8] and in assay [9] was over 100 µM throughout.
Turning to `C1#Cc2ccccc2OCCOc2ccccc2C#Cc2ccccc2OCCOc2ccccc21`, the TGI was over 100 µM in assay [1]; 98.9 µM in assay [2]; over 100 µM in assay [3]; 65.2 µM in assay [4]; 23.2 µM in [5]; over 100 µM in assay [6]. The TGI in assay [8] was 42.4 µM; in assay [9], over 100 µM.
For the compound `CO/C(=N\N=C\c1ccc(Cl)cc1Cl)c1ccncc1`, the TGI in assay [1], in [2], in assay [3], in [4], in [5] and in assay [6] was over 10 µM in each case. Further, the TGI in [8] and in assay [9] was over 10 µM each time.
With `O=C(CN1CCCCC1)c1ccc2c(c1)Sc1ccccc1O2`, the TGI in [1] turned out to be 35 µM; in [2], 36.1 µM; in assay [3] it was 39.1 µM; in [4], 30 µM; in assay [5] it was 32.5 µM; in [6], 29.1 µM. Moreover, the TGI in assay [7] was 29.6 µM; in [8], over 100 µM; in assay [9], 61.1 µM.
